Data on seven molecules can be found in patent US10828281B2, “Non-hydrophobic compounds for use in treating metastasis and/or cartilage defect” (Friedrich-Alexander-Universität Erlangen-Nürnberg, priority 2015, dated 2020).

The target in series [1] is T1, MIA-MIA interaction (Homo sapiens, UniProt Q16674).
T1 sequence (Q16674 25-131): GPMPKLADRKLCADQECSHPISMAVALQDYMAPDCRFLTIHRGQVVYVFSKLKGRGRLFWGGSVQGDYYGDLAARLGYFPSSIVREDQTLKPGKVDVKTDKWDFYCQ
The settings on record: disclosed in WO 2011/113604; cited from earlier work.

In series [2] the test system is human fibroblasts. Briefly: proliferation of human fibroblasts. The class given is cell-based. Particulars: 7.8 μM, in vitro, FIG. 5A. The procedure:
(§1) In order to assess whether compounds of the present invention show any adverse effects on normal cells, human fibroblasts and kidney cells were treated with the compounds 1, 2, 3, 4, 5, and 6, respectively, in vitro at a concentration of 7.8 μM in analogy to previous studies (Schmidt, J., et al., Targeting melanoma metastasis and immunosuppression with a new mode of melanoma inhibitory activity (MIA) protein inhibition. PLoS One, 2012. 7(5): p. e37941; Riechers, A., et al., Heterogeneous transition metal-based fluorescence polarization (HTFP) assay for probing protein interactions. Biotechniques, 2009. 47(4): p. 837-44).

For series [3], the system named is human Mel-Im melanoma cells. In words: Boyden chamber migration assay. The settings on record: compound 1 μM, MIA 200 ng/mL, FIG. 4. It counts as cell-based. The procedure:
The melanoma cell line Mel-Im, established from a human metastatic bioptic sample (generous gift from Dr. Johnson, University of Munich, Germany) was used for the Boyden chamber migration experiments. All cells were maintained in DMEM (PAA, Pasching, Germany) supplemented with penicillin (400 U/mL), streptomycin (50 μg/mL), L-glutamine (300 μg/mL) and 10% fetal calf serum (Pan Biotech GmbH, Aidenbach, Germany) and split in a 1:6 ratio every three days. Migration assays were performed in Boyden Chambers containing polycarbonate filters with […] (Neuro Probe, Gaithersburg, Md., USA) essentially as described. MIA was added to the cell suspension at a final concentration of 200 ng/mL. Selected compounds were used at a final concentration of 1 μM. Experiments were carried out in triplicates and repeated at least three times.

The subject of series [4] is kidney cells HEK-293. Briefly: cellular attachment of kidney cells. It counts as cell-based, human. Particulars: 7.8 μM, in vitro, HEK-293, FIG. 5D. The procedure:
as §1

Series [5] deals with T1, MIA-MIA interaction. Briefly: heterogeneous transition metal-based fluorescence polarization (HTFP) assay of MIA dimerization. The class given is binding. The settings on record: FIG. 3. The procedure: The dimerization of the MIA protein is for example measured by a heterogeneous transition metal-based fluorescence polarization (HTFP) assay, wherein the ratio P/P0 is measured. P is the fluorescence polarization signal of a MIA protein labeled with a transition metal complex in the presence of substrate bound MIA-protein and of a compound to be tested. P0 is the fluorescence polarization signal of free MIA-protein labeled with said luminescent transition metal complex in the absence of substrate bound MIA-protein and in the absence of the compound. In the absence of the compound, usually, the labeled MIA-protein would interact with the substrate bound MIA-protein, which, in turn, would contribute to a reduction in rotational mobility of the labeled MIA-protein, and therefore, the fluorescence polarization signal would increase upon such interaction. If, additionally, a compound is present that interferes with such interaction, no or little dimerization/aggregation occurs and no or little increase in fluorescence polarization signal would be detected. The smaller or even more negative P/P0 is, the stronger such interference with dimer formation and aggregation is, and the better such compound prevents or breaks up dimerization/aggregation of MIA protein. In an alternative embodiment, binding of the compound to MIA protein is determined by NMR, e.g., heteronuclear NMR, e.g., ^15N-^1H-HSQC-NMR.
All listed compounds that were screened for their ability to interfere with the MIA-MIA interaction (Table 1) in a heterogeneous transition metal-based fluorescence polarization (HTFP) assay previously developed (Riechers, A., et al., Heterogeneous transition metal-based fluorescence polarization (HTFP) assay for probing protein interactions. Biotechniques, 2009. 47(4): p. 837-44). […] The molecular structures of the compounds showing interference with the MIA-MIA interaction in the HTFP assay are shown in Table 1.

In series [6] the test system is kidney cells HEK-293. In words: proliferation of kidney cells. It counts as cell-based, human. The settings on record: 7.8 μM, in vitro, HEK-293, FIG. 5C. The procedure: as §1
The subject of series [7] is human fibroblasts. Briefly: cellular attachment of human fibroblasts. The class given is cell-based. Particulars: 7.8 μM, in vitro, FIG. 5B. The procedure:
as §1

Series [8] concerns human melanoma cell line Mel Im. In words: proliferation of melanoma cell line Mel Im. It counts as cell-based. The settings on record: FIG. 6.

“Also recorded” adds a separate entry of the source.

Regarding “AR71: a peptide having the amino acid sequence FHWRYPLPLPGQ (SEQ ID NO:1)”, the “blocking of the MIA-MIA interaction” value with MIA-MIA interaction [1] was “able to block the MIA-MIA interaction”.

With `CCC(C)N1CC(=O)C(c2nc3ccccc3[nH]2)=C1N` (stereo not shown) [Compound 1, 5-amino-4-(1H-1,3-benzodiazol-2-yl)-1-(butan-2-yl)-2,3-dihydro-1H-pyrrol-3-one], the “effect on proliferation of human fibroblasts” value with human fibroblasts [2] was “no negative effects”. Further, the “MIA activity on melanoma cell migration” value in series [3] is given as “reduction; also recorded: inhibition”. In addition, in the series with kidney cells HEK-293 [4], the “effect on cellular attachment of kidney cells” value is recorded as “no negative effects”. Moreover, the “fluorescence polarization of Ru-(bpy)3 labelled MIA (interference with the MIA-MIA interaction)” value (“fluorescence polarization” for short) at MIA-MIA interaction [5] is on record as “significant decreases”. The “effect on proliferation of kidney cells” value in the series on kidney cells HEK-293 [6] is reported as “no negative effects”. Also, the “effect on cellular attachment of human fibroblasts” value in the series with human fibroblasts [7] is “no negative effects”. Further, the “proliferation of the human melanoma cell line Mel Im after treatment” value (“proliferation … after treatment” for short) in series [8] is listed as “significant decrease; also recorded: inhibition”.

For the molecule `CS(=O)(=O)NCC#CCN1CCc2ccccc2C1` [Compound 2, N-[4-(1,2,3,4-tetrahydroisoquinolin-2-yl)but-2-yn-1-yl]methanesulfonamide], the “effect on proliferation of human fibroblasts” value with human fibroblasts [2] is “no negative effects”. In addition, the “MIA activity on melanoma cell migration” value in series [3] was “reduction; also recorded: inhibition”. For the same molecule, the “effect on cellular attachment of kidney cells” value in the series on kidney cells HEK-293 [4] is “no negative effects”. The “fluorescence polarization” value on MIA-MIA interaction [5] is listed as “significant decreases”. Moreover, the “effect on proliferation of kidney cells” value in the series with kidney cells HEK-293 [6] is “no negative effects”. Besides, in the series with human fibroblasts [7], the “effect on cellular attachment of human fibroblasts” value was “no negative effects”. The “proliferation … after treatment” value in series [8] is given as “could not be found”.

Regarding `CCCCNC(=O)c1c(O)nc2c(C)cccn2c1=O` [Compound 6, N-butyl-2-hydroxy-9-methyl-4-oxo-4H-pyrido[1,2-a]pyrimidine-3-carboxamide], in the series with human fibroblasts [2], the “effect on proliferation of human fibroblasts” value is given as “no negative effects”. For the same molecule, the “MIA activity on melanoma cell migration” value in series [3] is recorded as “reduction”. Moreover, the “effect on cellular attachment of kidney cells” value with kidney cells HEK-293 [4] is reported as “no negative effects”. The “fluorescence polarization” value on MIA-MIA interaction [5] is listed as “significant decreases”. Moreover, the “effect on proliferation of kidney cells” value in the series with kidney cells HEK-293 [6] is given as “no negative effects”. Further, the “effect on cellular attachment of human fibroblasts” value with human fibroblasts [7] is “no negative effects”. Moreover, the “proliferation … after treatment” value in series [8] is listed as “could not be found”.

On to `COc1ccc2[nH]c(CN3CCNCC3)nc2c1` [Compound 5, 5-methoxy-2-(piperazin-1-ylmethyl)-1H-1,3-Benzodiazole], for which the “effect on proliferation of human fibroblasts” value with human fibroblasts [2] is on record as “no negative effects”. In addition, the “MIA activity on melanoma cell migration” value in series [3] was “reduction”. In the series with kidney cells HEK-293 [4], the “effect on cellular attachment of kidney cells” value is listed as “no negative effects”. In addition, the “fluorescence polarization” value on MIA-MIA interaction [5] is “significant decreases”. The “effect on proliferation of kidney cells” value in the series on kidney cells HEK-293 [6] was “no negative effects”. In the series on human fibroblasts [7], the “effect on cellular attachment of human fibroblasts” value was “no negative effects”. Further, the “proliferation … after treatment” value in series [8] was “could not be found”.

Take `CCCCCNC(=O)Cc1cc(=O)[nH]c(=O)[nH]1` [Compound 3, 2-(2,6-dioxo-1,2,3,6-tetrahydropyrimidin-4-yl)-N-Pentylacetamide]: the “effect on proliferation of human fibroblasts” value in the series with human fibroblasts [2] is “no negative effects”. Also, the “MIA activity on melanoma cell migration” value in series [3] is “reduction; also recorded: inhibition”. In addition, the “effect on cellular attachment of kidney cells” value in the series with kidney cells HEK-293 [4] is on record as “no negative effects”. Besides, the “fluorescence polarization” value on MIA-MIA interaction [5] is on record as “significant decreases”. Also, in the series with kidney cells HEK-293 [6], the “effect on proliferation of kidney cells” value is recorded as “no negative effects”. Besides, in the series with human fibroblasts [7], the “effect on cellular attachment of human fibroblasts” value was “no negative effects”. In series [8], the “proliferation … after treatment” value is given as “could not be found”.

Consider `CC(=O)c1c(C)cn(CC(O)CN2CCNCC2)c1C` (stereo not shown) [Compound 4, 1-{1-[2-hydroxy-3-(piperazin-1-yl)propyl]-2,4-dimethyl-1H-pyrrol-3-yl}ethan-1-one], for which, in the series with human fibroblasts [2], the “effect on proliferation of human fibroblasts” value is recorded as “no negative effects”. Moreover, in series [3], the “MIA activity on melanoma cell migration” value is on record as “reduction”. In the series on kidney cells HEK-293 [4], the “effect on cellular attachment of kidney cells” value was “no negative effects”. Moreover, the “fluorescence polarization” value on MIA-MIA interaction [5] is reported as “significant decreases”. The “effect on proliferation of kidney cells” value in the series with kidney cells HEK-293 [6] is listed as “no negative effects”. Moreover, the “effect on cellular attachment of human fibroblasts” value in the series on human fibroblasts [7] is reported as “no negative effects”. In addition, the “proliferation … after treatment” value in series [8] is “could not be found”.
